Measured values taken from US20260001928A1 (CORTERIA PHARMACEUTICALS, priority 2022, published 2026).
*1 amine or outer side, *2 acyl side, *3 side chain or, on linkers, in order; H or OH if unused. Where a SMILES comes first, the peptide text is derived from it. Side-chain parts run from the residue outwards. [ ]: non-standard residue; d: D form. The star is where a group is joined. C20 diacid = O=C(O)CCCCCCCCCCCCCCCCCCC(=O)*; C16 diacid = O=C(O)CCCCCCCCCCCCCCC(=O)*; γGlu = O=C(O)[C@H](CCC(=O)[*:2])N[*:1]; NMeI = CC[C@H](C)[C@H](NC)C(=O)O; Api = NC1(C(=O)O)CCNCC1; Aib = CC(C)(N)C(=O)O; Butyryl = CCCC(=O)*

Experiments:
[1] = target: T1, human CRF2a receptor (Homo sapiens, UniProt Q13324); assay: Activity at human CRF2a receptor, cAMP functional assay in TeloHEAC cells; format: cell-based; conditions: TeloHEAC cells stably expressing human CRF2a receptor, relative to urocortin 2 (100 nM = 100%)
T1 construct: expressed in transfected cells; host or cells: TeloHEAC cells
T1 sequence (Q13324 1-411): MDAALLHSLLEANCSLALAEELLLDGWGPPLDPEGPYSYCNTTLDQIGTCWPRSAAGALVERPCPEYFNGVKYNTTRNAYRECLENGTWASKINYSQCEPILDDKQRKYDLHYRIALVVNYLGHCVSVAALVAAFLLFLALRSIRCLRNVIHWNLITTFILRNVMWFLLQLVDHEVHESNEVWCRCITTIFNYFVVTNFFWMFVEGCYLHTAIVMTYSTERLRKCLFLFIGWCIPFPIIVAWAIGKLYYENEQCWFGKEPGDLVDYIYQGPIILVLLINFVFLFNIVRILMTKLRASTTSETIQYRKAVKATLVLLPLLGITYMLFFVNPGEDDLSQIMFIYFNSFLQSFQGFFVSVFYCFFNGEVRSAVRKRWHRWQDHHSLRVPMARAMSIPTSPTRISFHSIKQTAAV
In short: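 cAMP accumulation was measured by HTRF 665/620 nm ratio after 30 min at 37° C compound exposure (16 twofold dilutions) of CRF2a-expressing TeloHEAC cells, 10000/well, in HEPES-buffered HBSS plus IBMX. Activity was normalised to urocortin 2 at 100 nM (100%), and EC50 was the concentration giving half-maximal activation.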

[2] = target: T2, CFR1R receptor (Homo sapiens, UniProt P34998); assay: Activity at anti-target CFR1R receptor, cAMP assay in CRF1R-overexpression CHO-K1 cells; format: cell-based; conditions: 100% = Sauvagine at 100 nM; for EC50: cAMP
T2 construct: host or cells: CHO-K1 (clone 2)
T2 sequence (P34998 24-415): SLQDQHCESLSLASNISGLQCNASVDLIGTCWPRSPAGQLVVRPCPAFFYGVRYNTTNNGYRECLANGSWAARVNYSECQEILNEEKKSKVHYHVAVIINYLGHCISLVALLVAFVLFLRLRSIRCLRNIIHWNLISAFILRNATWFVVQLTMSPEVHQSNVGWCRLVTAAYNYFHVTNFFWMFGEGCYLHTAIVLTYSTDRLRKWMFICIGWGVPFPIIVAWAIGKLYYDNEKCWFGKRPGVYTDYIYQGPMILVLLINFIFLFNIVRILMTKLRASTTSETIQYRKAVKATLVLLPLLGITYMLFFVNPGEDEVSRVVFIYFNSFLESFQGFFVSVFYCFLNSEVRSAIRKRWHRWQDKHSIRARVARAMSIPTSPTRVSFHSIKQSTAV
In short: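 Clone 2 cells were cultured in F12 (Hams)/10% FBS/400 μg/ml G418 at 37° C./5% CO2, frozen in medium with 10% DMSO, and thawed vials used. The protocol followed the TeloHAEC procedure, with 4000 cells/well final and Sauvagine at 100 nM defining 100% activation.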

| Structure (SMILES) | EC50 [1] | Emax (% I) [2] | EC50 [2] |
| --- | --- | --- | --- |
| CC[C@H](C)[C@H](NC(C)=O)C(=O)N[C@H](C(=O)N[C@@H](CC(C)C)C(=O)N[C@@H](CO)C(=O)N[C@@H](CC(C)C)C(=O)N[C@@H](CC(=O)O)C(=O)N[C@@H](C(=O)N1CCC[C@H]1C(=O)N[C@H](C(=O)N[C@@H](CCCCN)C(=O)N[C@@H](CC(C)C)C(=O)N[C@@H](CCCCNC(=O)CC[C@H](NC(=O)CCCCCCCCCCCCCCC(=O)O)C(=O)O)C(=O)N[C@@H](C)C(=O)N[C@H](C(=O)N[C@@H](CC(C)C)C(=O)N[C@@H](CC(C)C)C(=O)N[C@@H](CCC(=O)O)C(=O)N[C@@H](CCC(N)=O)C(=O)N[C@@H](CCC(=O)O)C(=O)N[C@@H](CCCCN)C(=O)N[C@@H](CCC(N)=O)C(=O)N[C@@H](CCCCN)C(=O)N[C@@H](CCCCN)C(=O)N[C@@H](CCC(N)=O)C(=O)N[C@@H](CCCNC(=N)N)C(=O)N[C@@H](CCC(=O)O)C(=O)N[C@@H](CCC(N)=O)C(=O)N[C@@H](C)C(=O)N[C@@H](CCC(=O)O)C(=O)N[C@H](C(=O)N[C@@H](CC(N)=O)C(=O)NC(C)(C)C(=O)N[C@@H](CCC(N)=O)C(=O)N[C@H](C(=O)N[C@@H](CC(C)C)C(=O)N[C@@H](C)C(=O)N[C@@H](CCC(N)=O)C(=O)N[C@H](C(N)=O)C(C)C)[C@@H](C)CC)[C@@H](C)O)[C@@H](C)CC)[C@@H](C)CC)C(C)C)C(C)C [compound 164] (Ac-IVLSLD[dV]PIKLK([γGlu-C16 diacid])AILLEQEKQKKQREQAETN[Aib]QILAQV-NH2) | 2.43 nM | 14 % I | > 250 nM |
| CCCC(=O)N[C@H](C(=O)N[C@@H](CC(C)C)C(=O)N[C@@H](CO)C(=O)N[C@@H](CC(C)C)C(=O)N[C@@H](CC(=O)O)C(=O)N[C@@H](C(=O)N1CCC[C@H]1C(=O)N[C@H](C(=O)N[C@@H](CCCCN)C(=O)N[C@@H](CC(C)C)C(=O)N[C@@H](CCCCNC(=O)CC[C@H](NC(=O)CCCCCCCCCCCCCCC(=O)O)C(=O)O)C(=O)N[C@@H](CCC(N)=O)C(=O)N[C@H](C(=O)N[C@@H](CC(C)C)C(=O)N[C@@H](CC(C)C)C(=O)N[C@@H](CCCCN)C(=O)N[C@@H](CCC(N)=O)C(=O)N[C@@H](CCC(=O)O)C(=O)N[C@@H](CCCNC(=N)N)C(=O)N[C@@H](CCC(N)=O)C(=O)N[C@@H](CCCCN)C(=O)N[C@@H](CCCCN)C(=O)N[C@@H](CCC(N)=O)C(=O)N[C@@H](CCCNC(=N)N)C(=O)N[C@@H](CCC(=O)O)C(=O)N[C@@H](CCC(N)=O)C(=O)N[C@@H](C)C(=O)N[C@@H](CCC(=O)O)C(=O)N[C@@H](CCCCN)C(=O)N[C@@H](CC(N)=O)C(=O)N[C@@H](CCCCN)C(=O)N[C@@H](CCC(N)=O)C(=O)N[C@H](C(=O)N[C@@H](CC(C)C)C(=O)N[C@@H](CCC(=O)O)C(=O)N[C@@H](CCC(N)=O)C(=O)N[C@H](C(N)=O)C(C)C)[C@@H](C)CC)[C@@H](C)CC)[C@@H](C)CC)C(C)C)C(C)C [compound 7] (Butyryl-VLSLD[dV]PIKLK([γGlu-C16 diacid])QILLKQERQKKQREQAEKNKQILEQV-NH2) | 0.06 nM | 59 % I |  |
| CC[C@H](C)[C@H](NC(C)=O)C(=O)N[C@H](C(=O)N[C@@H](CC(C)C)C(=O)N[C@@H](CO)C(=O)N[C@@H](CC(C)C)C(=O)N[C@@H](CC(=O)O)C(=O)N[C@@H](C(=O)N1CCC[C@H]1C(=O)N[C@H](C(=O)NCC(=O)N[C@@H](CC(C)C)C(=O)N[C@@H](CCCCNC(=O)CC[C@H](NC(=O)CCCCCCCCCCCCCCCCCCC(=O)O)C(=O)O)C(=O)N[C@@H](CCCCN)C(=O)N[C@H](C(=O)N[C@@H](CC(C)C)C(=O)N[C@@H](CC(C)C)C(=O)N[C@@H](CCC(=O)O)C(=O)N[C@@H](CCC(N)=O)C(=O)N[C@@H](CCC(=O)O)C(=O)N[C@@H](CCCCN)C(=O)N[C@@H](CCC(N)=O)C(=O)N[C@@H](CCCCN)C(=O)N[C@@H](CCCCN)C(=O)N[C@@H](CCC(N)=O)C(=O)N[C@@H](CCCNC(=N)N)C(=O)N[C@@H](CCC(=O)O)C(=O)N[C@@H](CCC(N)=O)C(=O)N[C@@H](C)C(=O)N[C@@H](CCC(=O)O)C(=O)N[C@H](C(=O)N[C@@H](CC(N)=O)C(=O)NC(C)(C)C(=O)N[C@@H](CCC(N)=O)C(=O)N[C@H](C(=O)N[C@@H](CC(C)C)C(=O)N[C@@H](C)C(=O)N[C@@H](CCC(N)=O)C(=O)N[C@H](C(N)=O)C(C)C)[C@@H](C)CC)[C@@H](C)O)[C@@H](C)CC)[C@@H](C)CC)C(C)C)C(C)C [compound 226] (Ac-IVLSLD[dV]PIGLK([γGlu-C20 diacid])KILLEQEKQKKQREQAETN[Aib]QILAQV-NH2) | 0.18 nM | 82 % I | 42.2 nM |
| CC[C@H](C)[C@H](NC(C)=O)C(=O)N[C@H](C(=O)N[C@@H](CC(C)C)C(=O)N[C@@H](CO)C(=O)N[C@@H](CC(C)C)C(=O)N[C@@H](CC(=O)O)C(=O)N[C@@H](C(=O)N1CCC[C@H]1C(=O)N[C@H](C(=O)N[C@@H](CCCCN)C(=O)N[C@@H](CC(C)C)C(=O)N[C@@H](CCCCNC(=O)CC[C@H](NC(=O)CCCCCCCCCCCCCCC(=O)O)C(=O)O)C(=O)N[C@@H](CCCCN)C(=O)N[C@H](C(=O)N[C@@H](CC(C)C)C(=O)N[C@@H](CC(C)C)C(=O)N[C@@H](CCCCN)C(=O)N[C@@H](CCC(N)=O)C(=O)N[C@@H](CCC(=O)O)C(=O)N[C@@H](CCCNC(=N)N)C(=O)N[C@@H](CCC(N)=O)C(=O)N[C@@H](CCCCN)C(=O)N[C@@H](CCCCN)C(=O)N[C@@H](CCC(N)=O)C(=O)N[C@@H](CCCNC(=N)N)C(=O)N[C@@H](CCC(=O)O)C(=O)N[C@@H](CCC(N)=O)C(=O)N[C@@H](C)C(=O)N[C@@H](CCC(=O)O)C(=O)N[C@@H](CCCCN)C(=O)N[C@@H](CC(N)=O)C(=O)NC(C)(C)C(=O)N[C@@H](CCC(N)=O)C(=O)N[C@H](C(=O)N[C@@H](CC(C)C)C(=O)N[C@@H](CCC(=O)O)C(=O)N[C@@H](CCC(N)=O)C(=O)N[C@H](C(N)=O)C(C)C)[C@@H](C)CC)[C@@H](C)CC)[C@@H](C)CC)C(C)C)C(C)C [compound 21] (Ac-IVLSLD[dV]PIKLK([γGlu-C16 diacid])KILLKQERQKKQREQAEKN[Aib]QILEQV-NH2) | 0.34 nM | 5 % I | > 250 nM |
| CC[C@H](C)[C@H](NC)C(=O)N[C@H](C(=O)N[C@@H](CC(C)C)C(=O)N[C@@H](CO)C(=O)N[C@@H](CC(C)C)C(=O)N[C@@H](CC(=O)O)C(=O)N[C@@H](C(=O)N1CCC[C@H]1C(=O)N[C@H](C(=O)N[C@@H](CCCCN)C(=O)N[C@@H](CC(C)C)C(=O)N[C@@H](CCCCNC(=O)CC[C@H](NC(=O)CCCCCCCCCCCCCCC(=O)O)C(=O)O)C(=O)N[C@@H](CCCCN)C(=O)N[C@H](C(=O)N[C@@H](CC(C)C)C(=O)N[C@@H](CC(C)C)C(=O)N[C@@H](CCC(=O)O)C(=O)N[C@@H](CCC(N)=O)C(=O)N[C@@H](CCC(=O)O)C(=O)N[C@@H](CCCCN)C(=O)N[C@@H](CCC(N)=O)C(=O)N[C@@H](CCCCN)C(=O)N[C@@H](C)C(=O)N[C@@H](CCC(N)=O)C(=O)N[C@@H](CCCNC(=N)N)C(=O)N[C@@H](CCC(=O)O)C(=O)N[C@@H](CCC(N)=O)C(=O)N[C@@H](C)C(=O)N[C@@H](CCC(=O)O)C(=O)N[C@H](C(=O)N[C@@H](CC(N)=O)C(=O)NC1(C(=O)N[C@@H](CCC(N)=O)C(=O)N[C@H](C(=O)N[C@@H](CC(C)C)C(=O)N[C@@H](C)C(=O)N[C@@H](CCC(N)=O)C(=O)N[C@H](C(N)=O)C(C)C)[C@@H](C)CC)CCNCC1)[C@@H](C)O)[C@@H](C)CC)[C@@H](C)CC)C(C)C)C(C)C [compound 154] (H-[NMeI]VLSLD[dV]PIKLK([γGlu-C16 diacid])KILLEQEKQKAQREQAETN[Api]QILAQV-NH2) | 0.52 nM | 24 % I | > 250 nM |
